Test results from patent US9469556B2, “Ballast water treatment system” (University of Strathclyde, priority 2009, dated 2016).

Test system: organisms in sea water
Test: ATP luminescence assay of sea samples treated with biocide dyes
Assay type: cell-based
Details: for biocidal properties in sea water (total ATP levels): Millport sea samples, different concentrations
Protocol: Required quantities of each biocide dye were added to the tubes containing the sea sample by means of sterile pipettes in order to give the desired concentrations.
50 mL of each seawater sample was centrifuged at 4,000 rpm for 30 minutes at room temperature. The supernatant was discarded, and the pellets (which may not be visible) were resuspended in 1 mL of ATP Buffer Mix by brisk mixing with a sterile pastette. 0.1 mL of detergent solution was added to each sample. Sample tubes were then placed in a water bath at 90° C. for exactly 5 minutes to lyse seawater organisms. Alternatively the seawater organisms (from 50 mL water) are captured on a 0.22 μm filter membrane and treated with the ATP Buffer Mix, as above.
As a negative control, sterilised seawater (filtered through 0.22 μm filter and/or autoclaved) was used. Where coloured agents were added to the samples, these were also added to the negative control at the same concentration.
One aliquot (0.1 mL) of ATP Assay Mix solution was thawed and added to a sterile transparent 5 mL luminometer tube. This was swirled and allowed to stand at room temperature to allow hydrolysis of endogenous ATP and decrease background.
Immediately after 5 minutes of being at 90° C., 0.1 mL of resuspended seawater sample was added to the reaction tube, swirled briskly for 5 seconds, and immediately measured using a tube luminometer using a 4 second read time.

Q: What does the source list for `CN(C)c1ccc(C(=C2C=CC(=[N+](C)C)C=C2)c2ccc(N(C)C)cc2)cc1` [Gentian Violet]?
A: biocidal properties in sea water (total ATP levels) (with and without incubation (FIG. 3.2)): effective biocidal properties; viability of organisms in sea water (as measured by ATP presence) (dyes used separately (FIG. 4.1)): incomplete reduction in viability

Q: With `O=C1OC2(c3ccccc31)c1cc(I)c(O)c(I)c1Oc1c2cc(I)c(O)c1I` [erythrosine] as the compound, how does the “biocidal properties in sea water (total ATP levels)” value (overnight incubation, with and without light (60 w for 5 minutes) (FIG. 3.3)) read?
A: The value was “effective biocidal properties”.
